Assays:
Naïve SKG CD4+ T cells = test: ex vivo Th17 differentiation assay in Th17 inflammatory conditions; format: cell-based, mouse; conditions: for FoxP3 expression in CD4+ T cells: Th17 polarizing cytokines, four days
Description: To test the effect of ATRA on enhancing Treg cells, an ex vivo differentiation and stabilization assay in Th17 inflammatory conditions using cytokine supplementation was performed (FIG. 1A). Naïve SKG CD4+ T cells were isolated to consistently obtain greater than 90% CD4+CD44−CD62L+ post-enrichment (data not shown). Subsequently, these cells were stimulated with anti-mouse CD3 (αCD3) and CD28 (αCD28) antibodies along with Th17 polarizing cytokines IL-6, TGF-β1, IL-1β, and IL-23, and immunophenotypes were analyzed after four days. In a subset of conditions, ATRA was added to the T cell culture medium, ranging from 10 pM to 10 nM. […] In addition to reduced expression of IL-17A, the fraction of RORγt+CD4+ T cells was reduced in 1 nM ATRA conditions (53.3±7.9%) relative to cells exposed 0 nM ATRA (73.3±3.9%) (FIG. 1D).
(§1) The bioactivity of released ATRA was assessed following the experimental schematic outlined in FIG. 1A with supernatant collected at day 1, 14 and 28 and replicates diluted to the expected joint concentration based on delivery of 2 μg ATRA-encapsulated PLGA MPs injected in ˜20 μL of synovial fluid.

SKG FoxP3eGFP Treg cells = test: Treg cell stability (destabilization) assay; format: cell-based, mouse; conditions: 1 nM ATRA, IL6, 72 hours
Description: The loss of FoxP3 expression correlated with Treg cell transitioning to a Th17-like exTreg cell phenotype, with 23.0±1.7% and 13.3±1.5% of cells without ATRA expressing RORγt and IL-17, respectively, compared to 11.6±1.8% and 5.7±1.1% of cells cultured with 1 nM ATRA (FIGS. 1G and H).
as §1

[1] = system: healthy C57BL/6J (B6) mice; test: OVA immunization in healthy C57BL/6J mice; format: in vivo, mouse; conditions: spleen; daily i.p. administration
From the text: To quantify the effect of IA ATRA-encapsulated PLGA MPs on arthritis-irrelevant T cell suppression we leveraged OVA-specific tetramers available for quantifying T cells in H2b-background mice and conducted the aforementioned immunization study in healthy C57BL/6J (B6) mice (FIG. 8D). Systemically administered ATRA was delivered as a daily intraperitoneal (i.p.) injection to assess the effect of systemic exposure.

CD4+ T cells = test: 24-hour pretreatment then transfer to Th17 inducing conditions; format: cell-based; conditions: 24-hour pretreatment 1 nM ATRA, washed
Description: FIG. 10A depicts the quantification of FOXP3 expression in CD4+ T cells after 24-hour pretreatment with either nothing (None), 1 nM ATRA (ATRA), or IL-2, followed by removal and washing of the cells, and transfer to Th17 inducing conditions. FIG. 10B depicts quantification of IL-17 expression in CD4+ T cells after a 24-hour pretreatment with either nothing (None), 1 nM ATRA (ATRA), or IL-2, followed by removal and washing of the cells, and transfer to Th17 inducing conditions. Pre-treatment of the CD4+ T cells with ATRA increases FOXP3 expression and reduces IL-17 expression after exposure to Th17 inducing conditions.

[2] = system: chromatin of cells cultured in Th17 inducing conditions; test: Assay for Transposase Accessible Chromatin (ATAC) sequencing; format: cell-based
Description: Assay for Transposase Accessible Chromatin (ATAC) sequencing assay uses a hyperactive protein to bind and snip DNA in open chromatin regions to probe for the parts of DNA are accessible for transcription. The ATAC assay was performed to determine whether ATRA causes epigenetic modifications to cellular DNA to influence the accessibly of DNA for transcription and, in turn, modulating what a cell's “default” state/programs are. Quantification of differentially accessible regions (DARs) is shown by counts per peak between cells cultured in Th17 inducing conditions with (ATRA Treated) or without (Th17 Control) 1 nM ATRA. (FIG. 11A).
FIG. 11C is a heatmap of all DARs grouped in rows by those enriched in the ATRA treated group or those enriched in the Tb17 Control group. Heatmapping was performed by determining the z-score of the DAR in a given sample as compared to the row. A Genome browser plot for Th17 and Treg associated genes is shown (FIG. 11D). The size of the peaks corresponds to the number of reads, so the bigger the peaks are the more accessible that region of DNA is.

rodents = conditions: cited from earlier work
[3] = system: SKG mice with mannan-induced arthritis; test: IA treatment of established SKG arthritis (clinical score, ankle thickness); format: in vivo, mouse
Description: To assess the feasibility of modulating established SKG arthritis. ATRA-encapsulated PLGA MPs were injected into the tibial/tarsal ankle joint of ten SKG mice with middle stage arthritis, prior to the development of severe symptoms. PLGA-Blank MPs were injected into the tibial/tarsal ankle joint of eleven SKG mice with middle stage arthritis. Arthritis onset was synchronized using inter-peritoneal (IP) mannan injection. ATRA-encapsulated PLGA MPs treatment was administered after 14 days, corresponding to established SKG arthritis (FIG. 3A). To track MP degradation in vivo, cyanine-5 (Cy5) conjugated PLGA was incorporated to generate fluorescently labeled Cy5 PLGA MPs and PLGA MPs without ATRA (PLGA-Blank MPs). The PLGA-Blank MPs were imaged using a live animal. In Vivo Imaging System (IVIS). […] Based on fluorescence attenuation, MPs remained localized in the joint after injection and steadily degraded over the course of the study (FIG. 3B). Arthritis progression was quantified using bi-weekly clinical scoring between the treatment groups. […] The improvement in clinical score and ankle thickness measurements were quantified in both the ipsilateral and contralateral joints in the above described studies (FIG. 3H-J, FIGS. 6B and C).

arthritic SKG mice = test: subcutaneous administration to arthritic SKG mice; format: in vivo, mouse; conditions: subcutaneously between the scapula
Description: The efficacy of subcutaneously administered ATRA-encapsulated PLGA MPS in treating SKG mice was assessed to determine whether ATRA-encapsulated PLGA MPS act via systemic release, in which case subcutaneous ATRA-encapsulated PLGA MPS treatment would improve disease scores, or if ATRA-encapsulated PLGA MPS treatment acts locally, in which case its delivery to the intra-articular space would improve disease scores. ATRA-encapsulated PLGA MPS, dose-matched Bolus ATRA in corn oil, and vehicle (corn oil) were administered to arthritic SKG subcutaneously between the scapula of SKG mice (FIGS. 9A-B).

CC1=C(/C=C/C(C)=C/C=C/C(C)=C/C(=O)O)C(C)(C)CCC1 [ATRA, all-trans retinoic acid]
fraction of IL-17A+CD4+ T cells (Naïve SKG CD4+ T cells; 10 pM ATRA): 9.5±1.7%
fraction of IL-17A+CD4+ T cells (Naïve SKG CD4+ T cells; 100 pM ATRA): 7.2±1.5%
fraction of IL-17A+CD4+ T cells (Naïve SKG CD4+ T cells; 1 nM ATRA): 5.4±1.9%
fraction of RORγt+CD4+ T cells (Naïve SKG CD4+ T cells; 1 nM ATRA): 53.3±7.9%
fraction of IL-17A+CD4+ T cells (Naïve SKG CD4+ T cells; 10 nM ATRA): 5.4±2.3%
FoxP3 expression in CD4+ T cells (Naïve SKG CD4+ T cells; ATRA above 100 pM): 40.0±3.4%
FoxP3 expression in CD4+ T cells (Naïve SKG CD4+ T cells; ATRA below 100 pM): 11.2±2.3%
cells expressing IL-17 (SKG FoxP3eGFP Treg cells): 5.7±1.1%
cells expressing RORγt (SKG FoxP3eGFP Treg cells): 11.6±1.8%
cells retaining FoxP3eGFP expression (SKG FoxP3eGFP Treg cells): 71.6±5.5%
OVA-specific CD4+ T cells (tetramer staining) [1]: significantly lower
FOXP3 expression (CD4+ T cells): increases
IL-17 expression (CD4+ T cells): reduces
regions in the DNA more open in the ATRA treated cells ([2]; 1 nM ATRA versus Th17 control): 7957
accessibility of FoxP3 locus ([2]; 1 nM ATRA, genome browser plot): promotes accessibility
regions in the DNA more open in the Th17 control ([2]; Th17 control versus 1 nM ATRA): 10316
doses associated with toxicity (rodents): > 14 mg/kg

CC1=C(/C=C/C(C)=C/C=C/C(C)=C/C(=O)O)C(C)(C)CCC1 [bolus ATRA, all-trans retinoic acid]
severity of arthritis / clinical benefit ([3]; 2 μg IA MPs versus dose-matched IA bolus): no clinical benefit
clinical scores in ipsilateral and contralateral ankles ([3]; dose-matched IA bolus in corn oil): increased comparably
ankle swelling (arthritic SKG mice): Neither bolus ATRA nor ATRA-encapsulated PLGA MPs provided improvement
clinical score (arthritic SKG mice): Neither bolus ATRA nor ATRA-encapsulated PLGA MPs provided improvement

Reference: patent US12201598B2, “Immunoregulatory microparticles for modulating inflammatory arthritides” (The Regents of the University of California, priority 2021, dated 2025)
